Test results from patent US20100087523A1, “Rupestonic acid derivatives and use thereof” (priority 2008, published 2010).
Read-outs that look alike come from different tables or passages of the source.

How the values were obtained:
[1] = tested on: MDCK (Madin-darby canine kidney) cells; conditions: read-out: TC50 (toxic concentration 50%); host cells of the anti-flu virus test
[2] = tested on: A-type flu virus (jifang/90-15)
[3] = tested on: B-type flu virus (jifang/97-13); assay: organism not typed; conditions: MDCK, 36 h, read-out: Activity for inhibiting B-type flu viruses IC50
in vitro = conditions: dog
[4] = tested on: A-type flu virus (jifang/90-15); assay: organism not typed; conditions: MDCK, 36 h, read-out: Activity for inhibiting A-type flu viruses IC50
[5] = tested on: B-type flu virus (jifang/97-13); conditions: read-out: Activity for inhibiting B-type flu viruses IC50
[6] = read-out: Activity for inhibiting A-type flu viruses IC50
[7] = read-out: IC50, inhibit A-type flu virus

## C=C(C(=O)Oc1ccccc1Cl)C1CCC(C)C2CC(=O)C(C)=C2C1 (centres unmarked) [B-3, Rupestonic (o-chlorophenyl)-ester]
[1]
  CC50: 49.7 µM
[2]; [6]
  IC50: 11.5 µM

## NC(=O)c1ncn([C@@H]2O[C@H](CO)[C@@H](O)[C@H]2O)n1 [Ribavirin]
[3]
  IC50: 11.9 µM
In vitro
  CC50: 1570 µM
[4]
  IC50: 1.6 µM

## C=C(C(=O)OCc1ccc(Cl)cc1)C1CCC(C)C2CC(=O)C(C)=C2C1 (centres unmarked) [B-14, Rupestonic (p-chlorobenzyl)-ester]
[5]
  IC50: 19.1 µM
[1]
  CC50: 47.7 µM
[2]; [6]
  IC50: 12.5 µM

## C=C(C(=O)Oc1ccc(Br)cc1)C1CCC(C)C2CC(=O)C(C)=C2C1 (centres unmarked) [B-4, Rupestonic (p-bromophenyl)-ester]
[1]
  CC50: 44.2 µM
[2]; [6]
  IC50: 10.2 µM

## C=C(C(=O)Nc1ccc(Cl)cc1)C1CCC(C)C2CC(=O)C(C)=C2C1 (centres unmarked) [A-2, N(4-chloro-phenyl)-Rupestonic amide]
[5]
  IC50: 29.9 µM
[1]
  CC50: 121 µM
[2]; [6]
  IC50: 19.2 µM

## C=C(C(=O)O)[C@H]1CC[C@H](C)[C@@H]2CC(=O)C(C)=C2C1 [Compound 1, rupestonic acid]
[5]
  IC50: 116 µM
[1]
  CC50: 1040 µM

## C=C(C(=O)OCc1ccccc1Br)C1CCC(C)C2CC(=O)C(C)=C2C1 (centres unmarked) [B-17, Rupestonic (o-bromobenzyl)-ester]
[5]
  IC50: 25.7 µM
[1]
  CC50: 57.3 µM
[2]; [6]
  IC50: 15.2 µM

## CCOC(=O)C1=C[C@@H](OC(CC)CC)[C@H](NC(C)=O)[C@@H](N)C1 [Oseltamivir]
In vitro
  CC50: > 1220 µM
[4]
  IC50: 5.1 µM

## C=C(C(=O)OCC)C1CCC(C)C2CC(=O)C(C)=C2C1 (centres unmarked) [B-1, Ethyl Rupestonic ester]
[5]
  IC50: 50.9 µM
[1]
  CC50: 194 µM
[2]; [6]
  IC50: 39.1 µM

## C=C(C(=O)OCc1ccc([N+](=O)[O-])cc1)C1CCC(C)C2CC(=O)C(C)=C2C1 (centres unmarked) [B-15, Rupestonic (p-nitryl-benzyl)-ester]
[5]
  IC50: 5.5 µM
[1]
  CC50: 25 µM
[2]; [6]
  IC50: 5.5 µM

## C=C(C(=O)Oc1ccc(Cl)cc1)C1CCC(C)C2CC(=O)C(C)=C2C1 (centres unmarked) [B-2, Rupestonic (p-chlorophenyl)-ester]
[1]
  CC50: 240 µM
[2]; [7]
  IC50: 19.1 µM

## C=C(C(=O)Oc1ccc(C)cc1)C1CCC(C)C2CC(=O)C(C)=C2C1 (centres unmarked) [B-9, Rupestonic (p-methylphenyl)-ester]
[1]
  CC50: 191 µM
[2]; [7]
  IC50: 13.4 µM

## C=C(C(=O)Nc1ccccc1Br)C1CCC(C)C2CC(=O)C(C)=C2C1 (centres unmarked) [A-5, N(2-bromo-phenyl)-Rupestonic amide]
[1]
  CC50: 160 µM
[2]; [6]
  IC50: 49 µM
